Data reported in patent US8697739B2, “Bicyclic acetyl-CoA carboxylase inhibitors and uses thereof” (Novartis AG, priority 2010, dated 2014).

Each compound was assayed against T1, human acetyl-CoA carboxylase 2 (ACC2) (Homo sapiens, UniProt O00763) (assay: Acetyl-CoA carboxylase enzyme assay (malonyl-CoA formation by LC/MS/MS)). Settings: recombinant human ACC2 (aa 144-2458); read-out: IC50 ACC2.
T1 construct: The cDNA encoding amino acids 144 to 2458 of human acetyl-CoA carboxylase 2; made in house; host or cells: Sf9 insect cells (baculovirus, pFastBac1)
T1 sequence (O00763 144-2458): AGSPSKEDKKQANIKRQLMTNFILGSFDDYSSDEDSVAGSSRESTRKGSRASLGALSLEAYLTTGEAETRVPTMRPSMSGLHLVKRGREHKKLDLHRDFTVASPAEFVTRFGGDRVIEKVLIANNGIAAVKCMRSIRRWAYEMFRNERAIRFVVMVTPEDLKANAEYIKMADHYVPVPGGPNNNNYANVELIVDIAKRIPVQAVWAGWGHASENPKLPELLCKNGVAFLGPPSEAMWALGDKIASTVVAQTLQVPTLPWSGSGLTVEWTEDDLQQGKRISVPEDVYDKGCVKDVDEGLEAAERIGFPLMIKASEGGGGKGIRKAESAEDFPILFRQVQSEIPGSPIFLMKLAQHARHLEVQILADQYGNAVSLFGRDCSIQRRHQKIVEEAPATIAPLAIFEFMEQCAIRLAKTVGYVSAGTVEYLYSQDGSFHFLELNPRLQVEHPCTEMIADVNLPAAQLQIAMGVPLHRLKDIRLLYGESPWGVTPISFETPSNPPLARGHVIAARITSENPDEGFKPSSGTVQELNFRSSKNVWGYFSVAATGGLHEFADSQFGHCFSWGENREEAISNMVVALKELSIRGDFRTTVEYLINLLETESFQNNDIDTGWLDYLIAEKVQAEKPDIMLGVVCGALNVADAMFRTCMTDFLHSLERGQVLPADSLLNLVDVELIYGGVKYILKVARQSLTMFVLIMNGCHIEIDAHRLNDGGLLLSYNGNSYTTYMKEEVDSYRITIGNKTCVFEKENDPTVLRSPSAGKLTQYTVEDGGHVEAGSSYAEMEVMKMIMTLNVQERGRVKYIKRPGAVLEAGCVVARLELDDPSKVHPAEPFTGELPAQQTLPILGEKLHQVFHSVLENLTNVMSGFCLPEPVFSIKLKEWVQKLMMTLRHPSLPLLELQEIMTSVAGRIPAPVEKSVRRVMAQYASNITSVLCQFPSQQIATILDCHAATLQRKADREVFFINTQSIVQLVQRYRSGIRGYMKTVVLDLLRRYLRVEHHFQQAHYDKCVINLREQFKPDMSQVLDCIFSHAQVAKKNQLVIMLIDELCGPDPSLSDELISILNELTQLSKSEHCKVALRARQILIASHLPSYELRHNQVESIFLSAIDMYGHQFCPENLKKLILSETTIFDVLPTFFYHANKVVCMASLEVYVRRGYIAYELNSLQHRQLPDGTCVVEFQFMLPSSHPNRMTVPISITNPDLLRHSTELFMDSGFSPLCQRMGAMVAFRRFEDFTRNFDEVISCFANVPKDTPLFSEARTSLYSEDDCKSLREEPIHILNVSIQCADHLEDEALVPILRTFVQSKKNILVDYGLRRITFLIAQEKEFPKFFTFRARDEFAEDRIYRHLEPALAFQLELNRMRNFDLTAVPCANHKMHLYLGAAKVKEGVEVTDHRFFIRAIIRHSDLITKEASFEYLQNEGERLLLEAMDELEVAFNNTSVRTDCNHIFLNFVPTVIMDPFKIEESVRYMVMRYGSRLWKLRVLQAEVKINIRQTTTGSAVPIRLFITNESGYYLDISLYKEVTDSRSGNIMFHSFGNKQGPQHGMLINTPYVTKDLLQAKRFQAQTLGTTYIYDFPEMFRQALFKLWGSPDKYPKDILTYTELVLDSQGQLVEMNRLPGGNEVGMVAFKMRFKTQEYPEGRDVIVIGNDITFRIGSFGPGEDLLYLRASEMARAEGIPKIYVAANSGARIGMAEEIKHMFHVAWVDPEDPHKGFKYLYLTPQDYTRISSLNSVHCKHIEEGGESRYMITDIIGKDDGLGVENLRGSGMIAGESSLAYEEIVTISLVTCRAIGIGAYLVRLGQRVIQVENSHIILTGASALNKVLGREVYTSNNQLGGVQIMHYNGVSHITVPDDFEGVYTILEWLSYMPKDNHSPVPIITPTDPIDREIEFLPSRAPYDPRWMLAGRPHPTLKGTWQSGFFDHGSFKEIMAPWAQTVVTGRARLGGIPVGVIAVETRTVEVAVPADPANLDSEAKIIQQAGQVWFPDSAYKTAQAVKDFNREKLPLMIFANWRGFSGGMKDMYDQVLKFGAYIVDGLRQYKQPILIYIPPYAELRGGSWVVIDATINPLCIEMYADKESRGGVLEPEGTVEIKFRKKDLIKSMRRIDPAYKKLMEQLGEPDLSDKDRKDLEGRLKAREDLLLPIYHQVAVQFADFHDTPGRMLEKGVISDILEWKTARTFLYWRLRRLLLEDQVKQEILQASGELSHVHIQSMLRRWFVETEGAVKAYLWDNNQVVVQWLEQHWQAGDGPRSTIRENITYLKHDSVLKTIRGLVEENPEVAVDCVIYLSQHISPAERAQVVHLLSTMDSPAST
Assay type: biochemical
How it was run: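 Malonyl-CoA formation was read by LC/MS/MS MRM against a [13C3]-malonyl-CoA internal standard, after acetic acid quench. The enzyme was baculovirus/Sf9-expressed human ACC2 residues 144–2458, given 15 minutes room-temperature compound preincubation in HEPES pH 7.5 buffer with MgCl2, citrate and DTT. Substrate solution held 50 μM acetyl-CoA, 120 μM ATP and 2 mM KHCO3.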
In the case of O=C(O)[C@@H]1CCCN(C(=O)[C@H]2CC[C@H](NS(=O)(=O)c3ccc4ccccc4c3)CC2)C1 [Example 163, (R)-1-((1r,4R)-4-(naphthalene-2-sulfonamido)cyclohexanecarbonyl)piperidine-3-carboxylic acid], the IC50 is reported as 8520 nM.
Compound COC(=O)CN1CCCc2ccc(S(=O)(=O)N[C@H]3CC[C@H](C(=O)N[C@H](C)c4ccc(F)cc4)CC3)cc21 [Example 164, methyl 2-(7-(N-((1R,4r)-4-((R)-1-(4-fluorophenyl)ethylcarbamoyl)cyclohexyl)sulfamoyl)-3,4-dihydroquinolin-1(2H)-yl)acetate] has an IC50 of 350 nM.
Work on Cc1cnc2c(S(=O)(=O)N[C@H]3CC[C@H](C(=O)N[C@H](C)c4ccc(F)cc4)CC3)cccc2c1 [Example 165, (1r,4R)-N-((R)-1-(4-fluorophenyl)ethyl)-4-(3-methylquinoline-8-sulfonamido)cyclohexanecarboxamide] yielded an IC50 of 675 nM.
With C[C@@H](NC(=O)[C@H]1CC[C@H](NS(=O)(=O)c2ccc3c(c2)N(CC(=O)O)CCC3)CC1)c1ccc(F)cc1 [Example 166, 2-(7-(N-((1R,4r)-4-((R)-1-(4-fluorophenyl)ethylcarbamoyl)cyclohexyl)sulfamoyl)-3,4-dihydroquinolin-1(2H)-yl)acetic acid] the IC50 was 910 nM.
CC(C)CC1CCc2cc(S(=O)(=O)N[C@H]3CC[C@H](C(=O)N[C@H](C)c4ccc(F)cc4)CC3)ccc2N1 (stereo partly drawn) [Example 167, (1r,4R)-N-((R)-1-(4-fluorophenyl)ethyl)-4-(2-isobutyl-1,2,3,4-tetrahydroquinoline-6-sulfonamido)cyclohexanecarboxamide] was tested, and the IC50 was 205 nM.
Compound CC1CCc2ccc(S(=O)(=O)N[C@H]3CC[C@H](C(=O)N[C@H](C)c4ccc(F)cc4)CC3)cc2N1 (stereo partly drawn) [Example 168, (1r,4R)-N-((R)-1-(4-fluorophenyl)ethyl)-4-(2-methyl-1,2,3,4-tetrahydroquinoline-7-sulfonamido)cyclohexanecarboxamide] has an IC50 of 40 nM.
For CC1CCc2cc(S(=O)(=O)N[C@H]3CC[C@H](C(=O)N[C@H](C)c4ccc(F)cc4)CC3)ccc2N1 (stereo partly drawn) [Example 169, (1r,4R)-N-((R)-1-(4-fluorophenyl)ethyl)-4-(2-methyl-1,2,3,4-tetrahydroquinoline-6-sulfonamido)cyclohexanecarboxamide], the IC50 was 110 nM.
CC[C@H]1CCc2cc(S(=O)(=O)N[C@H]3CC[C@H](C(=O)N[C@H](C)c4ccc(F)cc4)CC3)ccc2N1 [Example 170, (1r,4R)-4-((S)-2-ethyl-1,2,3,4-tetrahydroquinoline-6-sulfonamido)-N-((R)-1-(4-fluorophenyl)ethyl)cyclohexanecarboxamide] showed an IC50 of 90 nM.
CC[C@@H]1CCc2cc(S(=O)(=O)N[C@H]3CC[C@H](C(=O)N[C@H](C)c4ccc(F)cc4)CC3)ccc2N1 [Example 171, (1r,4R)-4-((R)-2-ethyl-1,2,3,4-tetrahydroquinoline-6-sulfonamido)-N-((R)-1-(4-fluorophenyl)ethyl)cyclohexanecarboxamide] was tested, and the IC50 was 289 nM.
Work on C[C@@H]1CNc2ncc(S(=O)(=O)N[C@H]3CC[C@H](C(=O)N[C@H](C)c4ccc(F)cc4)CC3)cc2N1 [Example 172, (1R,4R)-N-((R)-1-(4-fluorophenyl)ethyl)-4-((R)-2-methyl-1,2,3,4-tetrahydropyrido[3,2-b]pyrazine-7-sulfonamido)cyclohexanecarboxamide] yielded an IC50 of 212 nM.
CC(C)(C)OC(=O)N1CCN(C(=O)C2CCC(NS(=O)(=O)c3ccc4c(c3)CCCN4)CC2)C(c2ccccc2)C1 (centres unmarked) [Example 173, tert-butyl 3-phenyl-4-((1r,4r)-4-(1,2,3,4-tetrahydroquinoline-6-sulfonamido)cyclohexanecarbonyl)piperazine-1-carboxylate] gave an IC50 of 75 nM.
CC(C)(C)OC(=O)N1CCN(C(=O)[C@H]2CC[C@H](NS(=O)(=O)c3ccc4c(c3)NCCC4)CC2)C(c2ccccc2)C1 (some centres unmarked) [Example 174, tert-butyl 3-phenyl-4-((1r,4r)-4-(1,2,3,4-tetrahydroquinoline-7-sulfonamido)cyclohexanecarbonyl)piperazine-1-carboxylate] gave an IC50 of 45 nM.
O=C([C@H]1CC[C@H](NS(=O)(=O)c2ccc3c(c2)CCCN3)CC1)N1CCNCC1c1ccccc1 (some centres unmarked) [Example 175, N-((1r,4r)-4-(2-phenylpiperazine-1-carbonyl)cyclohexyl)-1,2,3,4-tetrahydroquinoline-6-sulfonamide] gave an IC50 of 120 nM.
With O=C([C@H]1CC[C@H](NS(=O)(=O)c2ccc3c(c2)NCCC3)CC1)N1CCNCC1c1ccccc1 (some centres unmarked) [Example 176, N-((1r,4r)-4-(2-phenylpiperazine-1-carbonyl)cyclohexyl)-1,2,3,4-tetrahydroquinoline-7-sulfonamide] the IC50 was 105 nM.
In the case of O=C([C@H]1CC[C@H](NS(=O)(=O)c2ccc3c(c2)CCCN3)CC1)N1CCOCC1c1ccccc1 (some centres unmarked) [Example 177, N-((1r,4r)-4-(3-phenylmorpholine-4-carbonyl)cyclohexyl)-1,2,3,4-tetrahydroquinoline-6-sulfonamide], the IC50 is reported as 90 nM.
O=C([C@H]1CC[C@H](NS(=O)(=O)c2ccc3c(c2)NCCC3)CC1)N1CCOCC1c1ccccc1 (some centres unmarked) [Example 178, N-((1r,4r)-4-(3-phenylmorpholine-4-carbonyl)cyclohexyl)-1,2,3,4-tetrahydroquinoline-7-sulfonamide] showed an IC50 of 55 nM.
CC(C)(C)OC(=O)N1CCN(C(=O)[C@H]2CC[C@H](NS(=O)(=O)c3ccc4c(c3)CCC(C(F)(F)F)N4)CC2)C(c2ccccc2)C1 (some centres unmarked) [Example 179, tert-butyl 3-phenyl-4-((1r,4r)-4-(2-(trifluoromethyl)-1,2,3,4-tetrahydroquinoline-6-sulfonamido)cyclohexanecarbonyl)piperazine-1-carboxylate] gave an IC50 of 433 nM.
Work on CN1CCN(C)c2ncc(S(=O)(=O)N[C@H]3CC[C@H](C(=O)N4CCN(C(=O)OCc5ccccc5)CC4c4ccccc4)CC3)cc21 (some centres unmarked) [Example 180, benzyl 4-((1r,4r)-4-(1,4-dimethyl-1,2,3,4-tetrahydropyrido[3,2-b]pyrazine-7-sulfonamido)cyclohexanecarbonyl)-3-phenylpiperazine-1-carboxylate] yielded an IC50 of 138 nM.
O=C(OCc1ccccc1)N1CCN(C(=O)[C@H]2CC[C@H](NS(=O)(=O)c3cnc4c(c3)NCCN4)CC2)C(c2ccccc2)C1 (some centres unmarked) [Example 181, benzyl 3-phenyl-4-((1r,4r)-4-(1,2,3,4-tetrahydropyrido[3,2-b]pyrazine-7-sulfonamido)cyclohexanecarbonyl)piperazine-1-carboxylate] gave an IC50 of 115 nM.
O=C([C@H]1CC[C@H](NS(=O)(=O)c2ccc3c(c2)CCC(C(F)(F)F)N3)CC1)N1CCNCC1c1ccccc1 (some centres unmarked) [Example 182, N-((1r,4r)-4-(2-phenylpiperazine-1-carbonyl)cyclohexyl)-2-(trifluoromethyl)-1,2,3,4-tetrahydroquinoline-6-sulfonamide] gave an IC50 of 685 nM.
CN1CCN(C)c2ncc(S(=O)(=O)N[C@H]3CC[C@H](C(=O)N4CCNCC4c4ccccc4)CC3)cc21 (some centres unmarked) [Example 183, 1,4-dimethyl-N-((1r,4r)-4-(2-phenylpiperazine-1-carbonyl)cyclohexyl)-1,2,3,4-tetrahydropyrido[3,2-b]pyrazine-7-sulfonamide] showed an IC50 of 135 nM.
With C[C@@H](NC(=O)[C@H]1CC[C@H](NS(=O)(=O)c2ccc3c(c2)C(NC(=O)C(F)(F)F)CCN3C(=O)C(F)(F)F)CC1)c1ccc(F)cc1 (stereo partly drawn) [Example 184, (1r,4R)-N-((R)-1-(4-fluorophenyl)ethyl)-4-(4-(2,2,2-trifluoroacetamido)-1-(2,2,2-trifluoroacetyl)-1,2,3,4-tetrahydroquinoline-6-sulfonamido)cyclohexanecarboxamide] the IC50 was greater than 35000 nM.
With C[C@@H](NC(=O)[C@H]1CC[C@H](NS(=O)(=O)c2ccc3c(c2)C(NC(=O)C(F)(F)F)CCN3)CC1)c1ccc(F)cc1 (stereo partly drawn) [Example 185, (1r,4R)-N-((R)-1-(4-fluorophenyl)ethyl)-4-(4-(2,2,2-trifluoroacetamido)-1,2,3,4-tetrahydroquinoline-6-sulfonamido)cyclohexanecarboxamide] the IC50 was greater than 35000 nM.
With O=C([C@H]1CC[C@H](NS(=O)(=O)c2cnc3c(c2)NCCN3)CC1)N1CCNCC1c1ccccc1 (some centres unmarked) [Example 186, N-((1r,4r)-4-(2-phenylpiperazine-1-carbonyl)cyclohexyl)-1,2,3,4-tetrahydropyrido[3,2-b]pyrazine-7-sulfonamide] the IC50 was 245 nM.
Compound O=C([C@H]1CC[C@H](NS(=O)(=O)c2ccc3c(c2)NC(C(F)(F)F)CC3)CC1)N1CCNCC1c1ccccc1 (some centres unmarked) [Example 187, N-((1r,4r)-4-(2-phenylpiperazine-1-carbonyl)cyclohexyl)-2-(trifluoromethyl)-1,2,3,4-tetrahydroquinoline-7-sulfonamide] has an IC50 of 245 nM.
In the case of Cc1cc2c(cc1S(=O)(=O)N[C@H]1CC[C@H](C(=O)N[C@H](C)c3ccc(F)cc3)CC1)NCCC2 [Example 188, (1r,4R)-N-((R)-1-(4-fluorophenyl)ethyl)-4-(6-methyl-1,2,3,4-tetrahydroquinoline-7-sulfonamido)cyclohexanecarboxamide], the IC50 is reported as 375 nM.
C[C@@H](NC(=O)C1CCC(NS(=O)(=O)c2cnc3c(c2)N[C@@H](Cc2ccccc2)CS3)CC1)c1ccc(F)cc1 (stereo partly drawn) [Example 189, 4-((S)-2-benzyl-2,3-dihydro-1H-pyrido[2,3-b][1,4]thiazine-7-sulfonamido)-N-((R)-1-(4-fluorophenyl)ethyl)cyclohexanecarboxamide] showed an IC50 of 75 nM.
C[C@@H](NC(=O)C1CCC(NS(=O)(=O)c2cnc3c(c2)N[C@H](Cc2ccccc2)CS3)CC1)c1ccc(F)cc1 (stereo partly drawn) [Example 190, 4-((R)-2-benzyl-2,3-dihydro-1H-pyrido[2,3-b][1,4]thiazine-7-sulfonamido)-N-((R)-1-(4-fluorophenyl)ethyl)cyclohexanecarboxamide] showed an IC50 of 35 nM.
O=C([C@H]1CC[C@H](NS(=O)(=O)c2cnc3c(c2)NCCN3)CC1)N1CCNC[C@@H]1c1ccccc1 [Example 191, N-((1S,4r)-4-((S)-2-phenylpiperazine-1-carbonyl)cyclohexyl)-1,2,3,4-tetrahydropyrido[3,2-b]pyrazine-7-sulfonamide] showed an IC50 of 150 nM.
